Measured values from patent US20140094510A1, “NON-AQUEOUS TAXANE NANODISPERSION FORMULATIONS AND METHODS OF USING THE SAME” (Teikoku Pharma USA, Inc., priority 2012, published 2014).

Experiment: Solubility of anhydrous docetaxel in PEG 300 / PEG 400
Format: physicochemical
Settings: per 1 g PEG 300; ultrasonic dispersion for 5 minutes at 70-80° C.
Method: Formulations of anhydrous docetaxel and either PEG 400 or PEG 300 were prepared and mixed using ultrasonic dispersion for 5 minutes at 70-80° C. 1 g of PEG 400 dissolved 25 mg of anhydrous docetaxel. […] 1 g of PEG 300 dissolved 100 mg of anhydrous docetaxel. Accordingly, PEG 300 was able to better solubilize anhydrous docetaxel.

CC(=O)O[C@@]12CO[C@@H]1C[C@H](O)[C@@]1(C)C(=O)[C@H](O)C3=C(C)[C@@H](OC(=O)[C@H](O)[C@@H](NC(=O)OC(C)(C)C)c4ccccc4)C[C@@](O)([C@@H](OC(=O)c4ccccc4)[C@H]21)C3(C)C [anhydrous docetaxel, (2R,3S)—N-carboxy-3-phenylisoserine,Ntert-butyl ester, 13-ester with 5β-20-epoxy-1,2α,4,7β,10β,13α-hexahydroxytax-11-en-9-one 4-acetate 2-benzoate]
amount of anhydrous docetaxel dissolved by 1 g of PEG 300: ≥ 100 mg
